In patent publication US20260297035A1, “PROTEIN KINASE INHIBITORS AND USES THEREOF” (DELiver Therapeutics, Inc., priority 2023, published 2026):
Counter-ions that a name gives are not always drawn.

What was measured:
[1] = system: RET; conditions: cited from earlier work
[2] = system: ABL1 E255K; conditions: role: cofactor; peptide substrate Tyr 02; read-out: ATP Km app; cited from earlier work
[3] = system: SRC-N1; conditions: cited from earlier work
[4] = system: ABL1 F317L; conditions: cited from earlier work
[5] = system: AURKA (Aurora A); conditions: role: cofactor; peptide substrate Ser/Thr 01; read-out: ATP Km app; cited from earlier work
[6] = system: BTK; conditions: cited from earlier work
[7] = system: NTRK2 (TRKB); conditions: role: cofactor; peptide substrate Tyr 01; read-out: ATP Km app; cited from earlier work
[8] = system: EPHA1; conditions: cited from earlier work
[9] = system: EPHA5; conditions: cited from earlier work
[10] = system: ITK; conditions: role: cofactor; peptide substrate Tyr 01; read-out: ATP Km app; cited from earlier work
[11] = system: ABL1 Y253F; conditions: role: cofactor; peptide substrate Tyr 02; read-out: ATP Km app; cited from earlier work
[12] = system: EPHA2; conditions: role: cofactor; peptide substrate Tyr 01; read-out: ATP Km app; cited from earlier work
[13] = system: AURKC (Aurora C); conditions: role: cofactor; peptide substrate Ser/Thr 19; read-out: ATP Km app; cited from earlier work
[14] = system: RET-V804L; conditions: role: cofactor; peptide substrate Tyr 02; read-out: ATP Km app; cited from earlier work
[15] = system: RET-S891A; conditions: role: cofactor; peptide substrate Tyr 06; read-out: ATP Km app; cited from earlier work
[16] = system: JAK3; conditions: role: cofactor; peptide substrate Tyr 06; read-out: ATP Km app; cited from earlier work
[17] = system: EPHA8; conditions: role: cofactor; peptide substrate Tyr 02; read-out: ATP Km app; cited from earlier work
[18] = system: BMX; conditions: role: cofactor; peptide substrate Tyr 01; read-out: ATP Km app; cited from earlier work
[19] = system: ABL1 G250E; conditions: role: cofactor; peptide substrate Tyr 02; read-out: ATP Km app; cited from earlier work
[20] = system: JAK2; conditions: role: cofactor; peptide substrate Tyr 06; read-out: ATP Km app; cited from earlier work
[21] = molecular target: T1, ABL1 T315I (Homo sapiens, UniProt P00519, T315I); conditions: role: cofactor; peptide substrate Tyr 02; read-out: ATP Km app; cited from earlier work
T1 construct: The ABL1 variant polypeptides utilized contained the same polypeptide as the “isoahABL1(wt)” polypeptide except that each contained one corresponding amino acid substitution

[22] = system: EPHB2; conditions: cited from earlier work
[23] = system: ABL1 F317I; conditions: role: cofactor; peptide substrate Tyr 02; read-out: ATP Km app; cited from earlier work
[24] = system: TYK2; conditions: role: cofactor; peptide substrate Tyr 03; read-out: ATP Km app; cited from earlier work
[25] = system: RET-V804E; conditions: cited from earlier work
[26] = system: TNK1; conditions: role: cofactor; peptide substrate Ser/Thr 13; read-out: ATP Km app; cited from earlier work
[27] = system: TXK; conditions: cited from earlier work
[28] = system: ABL2 (Arg); conditions: cited from earlier work
[29] = system: PTK2B (FAK2); conditions: cited from earlier work
[30] = system: LCK; conditions: cited from earlier work
[31] = system: AURKB (Aurora B); conditions: role: cofactor; peptide substrate Ser/Thr 01; read-out: ATP Km app; cited from earlier work
[32] = system: ROS1; conditions: cited from earlier work
[33] = system: NTRK1 (TRKA); conditions: role: cofactor; peptide substrate Tyr 01; read-out: ATP Km app; cited from earlier work
[34] = system: RET-Y791F; conditions: role: cofactor; peptide substrate Tyr 02; read-out: ATP Km app; cited from earlier work
[35] = system: EPHB1; conditions: role: cofactor; peptide substrate Tyr 02; read-out: ATP Km app; cited from earlier work
[36] = molecular target: ABL1(wt) (Homo sapiens, UniProt P00519); conditions: cited from earlier work
[37] = system: JAK1; conditions: role: cofactor; peptide substrate Tyr 06; read-out: ATP Km app; cited from earlier work
[38] = system: RET-A883F; conditions: role: cofactor; peptide substrate Tyr 04; read-out: ATP Km app; cited from earlier work
[39] = system: SRC; conditions: cited from earlier work
[40] = system: NTRK3 (TRKC); conditions: role: cofactor; peptide substrate Tyr 01; read-out: ATP Km app; cited from earlier work
[41] = system: IMR90 fibroblasts, IL-6; assay: Senomorphic activity: IL-6 reduction (ELISA) in senescent IMR90 fibroblasts; format: cell-based, human; conditions: for IL-6 reduction potency compared with pacritinib: compared with control drug pacritinib
Protocol: Senomorphic activity of compounds were assessed by determining whether the compounds could inhibit the senescence-associated secretory phenotype (SASP) in senescent cells, which is associated with overproduction and secretion of pro-inflammatory factors. Although many of these factors are associated primarily with macrophages and monocytes, they can also be made by a variety of senescent and activated cell types, such as fibroblasts. Specifically, IMR90 fibroblasts are known to overproduce these factors, especially when rendered senescent.
(§1) In the assay, IMR90 fibroblasts were plated at a density of 3E6 cells in a T175 tissue culture (TC)-treated flask. The flasks were placed into a tissue culture incubator and cells were allowed to adhere to the bottom of the wells for 24 hours. After cell adherence, the TC-treated flasks containing the cells were placed into a MultiRad225 X-ray irradiator, where cells were exposed to 10 grays (Gy) of ionizing […] irradiation. After irradiation, flasks were returned to the tissue culture incubator for 7 days, refreshing the cell media every 3 days.
(§2) After the 7-day incubation period that allowed full senescence transformation, cells were detached from the TC-treated flasks using 0.25% trypsin-EDTA solution. Cells were then split, and two experiments were conducted simultaneously: (1) verification of senescence induction via β-galactosidase staining (a senescent cell marker) and (2) analysis of senomorphic activity of compounds.
For verification of senescence induction, 2.5E4 cells were plated in TC-treated 6-well plates. After overnight adherence to the TC-plates, cells were fixed and stained for β-galactosidase accumulation following the manufacturer's standard protocol (e.g., Millipore Sigma, Senescence Cells Histochemical Staining Kit, CS0030-1KT). Brightfield microscopy was used to image the cells and ImageJ software was used to calculate the percentage of senescent cells per well. Non-irradiated IM90 fibroblasts were used as a non-senescent control.
To test the senomorphic activity of compounds, 1E4 cells were plated in 96-well plates. After overnight adherence to the 96-well plates, compounds were added in half-log dilutions to the wells containing the cells. Compounds that were effective inhibitors of JAK2 and were not effective inhibitors of JAK1 were assayed (JAK2 selective inhibitors). Twenty-four hours after compounds were added, cell culture media was collected and analyzed by various enzyme linked immunosorbent assays (ELISAs) for the expression of SASP-associated cytokines, including IL-6, TGF-beta, and TNF-alpha. The manufacturer's protocol was followed for ELISA analysis (e.g., Abcam, Human IL-6 ELISA kit, ab178013). Cytokine levels were compared to untreated controls and reduction of cytokine production was plotted and calculated using GraphPad Prism analysis software.

[42] = Relative viability (CellTiterGlo) of senescent IMR90 fibroblasts; format: cell-based, human; conditions: human, senescent imr90 fibroblasts
Protocol: as §1, §2
(§3) Cells also were measured for relative viability to generate cytotoxicity curves associated with the varying concentrations of compounds. […] LD50 values were measured by normalizing luminescence intensity to the lowest drug concentration. GraphPad Prism was used to plot and calculate LD50 values from the cytotoxic kill curves. Curves were fit to a non-linear regression model, with compound concentration vs. response and variable slope (four parameters).

[43] = system: IMR90 fibroblasts; assay: as above; format: cell-based, human; conditions: at IL-6 reducing concentrations
Protocol: as §1, §2, §3

[44] = system: TNK2 (ACK); conditions: control inhibitor; Tracer 236 at 30 nM; cited from earlier work
[45] = system: RET-V804M; conditions: control inhibitor; Tracer 236 at 5 nM; cited from earlier work
[46] = system: RET-M918T; conditions: control inhibitor; Tracer 236 at 10 nM; cited from earlier work
[47] = system: TEC; conditions: control inhibitor; Tracer 178 at 1 nM; cited from earlier work
[48] = system: DDR2-T654M; conditions: control inhibitor; Tracer 178 at 100 nM; cited from earlier work
[49] = system: JAK2; conditions: cited from earlier work
[50] = role: cofactor, peptide substrate Tyr 02, read-out: ATP Km app
[51] = role: cofactor, peptide substrate Tyr 01, read-out: ATP Km app
[52] = control inhibitor, Tyr 02, ATP 10 μM
[53] = control inhibitor, Tyr02, ATP 25 uM
[54] = control inhibitor, Tyr 02, ATP 50 uM

Structure (SMILES): Nc1ncnc2c1ncn2[C@@H]1O[C@H](COP(=O)(O)OP(=O)(O)OP(=O)(O)O)[C@@H](O)[C@H]1O [ATP]
- Km [1, 50]: 11 µM
- Km [2]: 4.2 µM
- Km [3, 50]: 50 µM
- Km [4, 50]: 14 µM
- Km [5]: 10 µM
- Km [6, 51]: 36 µM
- Km [7]: 22 µM
- Km [8, 50]: 18.5 µM
- Km [9, 51]: 129 µM
- Km [10]: 5.6 µM
- Km [11]: 11.8 µM
- Km [12]: 65.4 µM
- Km [13]: 26 µM
- Km [14]: 5 µM
- Km [15]: 8 µM
- Km [16]: 14 µM
- Km [17]: 123 µM
- Km [18]: 107 µM
- Km [19]: 5.4 µM
- Km [20]: 31 µM
- Km [21]: 2.8 µM
- Km [22, 50]: 66 µM
- Km [23]: 15 µM
- Km [24]: 23 µM
- Km ([25]; role: cofactor, peptide substrate Tyr 04, read-out: ATP Km app): 50 µM
- Km [26]: 237 µM
- Km ([27]; role: cofactor, peptide substrate Tyr 06, read-out: ATP Km app): 96 µM
- Km [28, 50]: 30 µM
- Km [29, 51]: 5 µM
- Km [30, 50]: 45 µM
- Km [31]: 81 µM
- Km [32, 51]: 61.4 µM
- Km [33]: 425 µM
- Km [34]: 12 µM
- Km [35]: 61.4 µM
- Km [36, 50]: 12 µM
- Km [37]: 87 µM
- Km [38]: 10 µM
- Km [39, 50]: 50 µM
- Km [40]: 54 µM

Structure (SMILES): Cc1ccc(Nc2ncc3cccc(-c4ccc(F)cc4OC(C)C)c3n2)cc1N [Cmpd51, N1-(8-(4-fluoro-2-isopropoxyphenyl)quinazolin-2-yl)-4-methylbenzene-1,3-diamine hydrochloride]
- IL-6 reduction (in words) [41]: potent IL-6 reduction at sub-toxic drug levels
- inhibition at 0.0004 µM ([41]; Homo sapiens, IMR-90, 0.4 nM, 24 hours, read-out: IL-6 production reduction): 67.5%
- inhibition at 1.25 µM ([41]; Homo sapiens, IMR-90, 1250 nM, 24 hours, read-out: IL-6 production reduction): 71.6%
- IL-6 reduction potency compared with pacritinib [41]: more potent than the control drug pacritinib
- viability ([42]; at 0.4 nM and 1250 nM): 100%
- cell toxicity (in words) [43]: without cell toxicity

Structure (SMILES): C=CC(=O)Nc1cc(Nc2ncc3cccc(-c4ccc(F)cc4OC(C)C)c3n2)ccc1C [Cmpd53, N-(5-((8-(4-fluoro-2-isopropoxyphenyl)quinazolin-2-yl)amino)-2-methylphenyl)acrylamide]
- IL-6 reduction (in words) [41]: potent IL-6 reduction at sub-toxic drug levels
- inhibition at 0.0008 µM ([41]; Homo sapiens, IMR-90, 0.8 nM, 24 hours, read-out: IL-6 production reduction): 82.2%
- inhibition at 0.8 µM ([41]; Homo sapiens, IMR-90, 800 nM, 24 hours, read-out: IL-6 production reduction): 82.9%
- IL-6 reduction potency compared with pacritinib [41]: more potent than the control drug pacritinib
- viability ([42]; at 0.8 nM and 800 nM): 100%
- cell toxicity (in words) [43]: without cell toxicity

Structure (SMILES): CN[C@@H]1C[C@H]2O[C@@](C)([C@@H]1OC)n1c3ccccc3c3c4c(c5c6ccccc6n2c5c31)C(=O)NC4 [Staurosporine]
- IC50 [4, 52]: 214 nM
- IC50 ([25]; control inhibitor, Tyr 04, ATP 50 uM): 2.29 nM
- IC50 ([29]; control inhibitor, Tyr 01, ATP 5 uM): 12 nM
- IC50 [45]: 1.02 nM
- IC50 [46]: 3.8 nM

Structure (SMILES): COc1cc2ncnc(Nc3cccc(Cl)c3)c2cc1OC [Tyrphostin AG1478]
- IC50 [3, 54]: 1050 nM
- IC50 ([6]; control inhibitor, Tyr 01, ATP 25 uM): 1800 nM
- IC50 [28, 53]: 731 nM
- IC50 [30, 54]: 631 nM
- IC50 [36, 52]: 326 nM
- IC50 [39, 54]: 1650 nM

Structure (SMILES): Cc1nc(Nc2ncc(C(=O)Nc3c(C)cccc3Cl)s2)cc(N2CCN(CCO)CC2)n1 [dasatinib]
- IC50 [48]: 139 nM

Structure (SMILES): N#CC[C@H](C1CCCC1)n1cc(-c2ncnc3[nH]ccc23)cn1 [ruxolitinib]
- JAK2 selectivity [49]: not selective inhibitors of JAK2 PK

Structure (SMILES): C[C@@H]1CCN(C(=O)CC#N)C[C@@H]1N(C)c1ncnc2[nH]ccc12 [tofacitinib]
- JAK2 selectivity [49]: not selective inhibitors of JAK2 PK
